In the NIST ThermoML archive (doi:10.1021/je200195q):
± gives the expanded uncertainty stated by the source.

Experiment: activity coefficient (dimensionless); of the first substance listed, at infinite dilution; xn = mol fraction of the nth substance listed
Settings: 101 kPa, Liquid, Chromatography, x1 = 0

| Structure (SMILES) | activity coefficient (322.55 K) | activity coefficient (342.75 K) | activity coefficient (362.65 K) | activity coefficient (312.8 K) | activity coefficient (332.85 K) | activity coefficient (354.65 K) | also measured |
| --- | --- | --- | --- | --- | --- | --- | --- |
| C1COCCO1 [1,4-dioxane] + CCCCCCCCCCn1cc[n+](CCCCCCCCCC)c1C.O=S(=O)([N-]S(=O)(=O)C(F)(F)F)C(F)(F)F |  |  |  |  |  |  | activity coefficient (323.1 K): 0.463 ± 0.036; activity coefficient (333.15 K): 0.46 ± 0.036; activity coefficient (343.15 K): 0.453 ± 0.036 |
| C#CCCCCC [1-heptyne] + CCCCn1cc[n+](C)c1.O=S(=O)([N-]S(=O)(=O)C(F)(F)C(F)(F)F)C(F)(F)C(F)(F)F | 3.91 ± 0.27 | 3.76 ± 0.26 | 3.58 ± 0.24 |  |  |  |  |
| Cc1ccccc1 [toluene] + CCCCCC[n+]1ccn(C)c1.FC(F)(F)C(F)(F)[P-](F)(F)(F)(C(F)(F)C(F)(F)F)C(F)(F)C(F)(F)F |  |  |  | 0.674 ± 0.046 | 0.727 ± 0.048 | 0.753 ± 0.05 |  |
| CCC(C)CC [3-methylpentane] + CCCCCCCCCCn1cc[n+](CCCCCCCCCC)c1C.O=S(=O)([N-]S(=O)(=O)C(F)(F)F)C(F)(F)F |  |  |  |  |  |  | activity coefficient (323.1 K): 1.71 ± 0.11; activity coefficient (333.15 K): 1.68 ± 0.11; activity coefficient (343.15 K): 1.63 ± 0.11 |
| C1CCCCCC1 [cycloheptane] + CCCCn1cc[n+](C)c1.O=S(=O)([N-]S(=O)(=O)C(F)(F)C(F)(F)F)C(F)(F)C(F)(F)F | 19.8 ± 1.4 | 35.2 ± 2.4 | 56.5 ± 3.9 |  |  |  |  |
| CC(C)CO [2-methyl-1-propanol] + CCCCn1cc[n+](C)c1.O=S(=O)([N-]S(=O)(=O)C(F)(F)C(F)(F)F)C(F)(F)C(F)(F)F | 2.26 ± 0.15 | 1.84 ± 0.12 | 1.57 ± 0.1 |  |  |  |  |
| Cc1ccccc1 [toluene] + CCCCn1cc[n+](C)c1.O=S(=O)([N-]S(=O)(=O)C(F)(F)C(F)(F)F)C(F)(F)C(F)(F)F | 1.4 ± 0.091 | 1.42 ± 0.093 | 1.46 ± 0.096 |  |  |  |  |
| Cc1ccc(C)cc1 [1,4-dimethylbenzene] + CCCCn1cc[n+](C)c1.O=S(=O)([N-]S(=O)(=O)C(F)(F)C(F)(F)F)C(F)(F)C(F)(F)F | 2.05 ± 0.14 | 2.03 ± 0.14 | 2 ± 0.14 |  |  |  |  |
| C=O [methanal] + CCCCn1cc[n+](C)c1.O=S(=O)([N-]S(=O)(=O)C(F)(F)C(F)(F)F)C(F)(F)C(F)(F)F | 0.134 ± 0.029 | 0.155 ± 0.029 | 0.164 ± 0.029 |  |  |  |  |
| CCCCCCCCCC [decane] + CCCCCCCCCCn1cc[n+](CCCCCCCCCC)c1C.O=S(=O)([N-]S(=O)(=O)C(F)(F)F)C(F)(F)F |  |  |  |  |  |  | activity coefficient (323.1 K): 3.56 ± 0.24; activity coefficient (333.15 K): 3.46 ± 0.24; activity coefficient (343.15 K): 3.33 ± 0.23 |
| C=O [methanal] + CCCCCC[n+]1ccn(C)c1.FC(F)(F)C(F)(F)[P-](F)(F)(F)(C(F)(F)C(F)(F)F)C(F)(F)C(F)(F)F |  |  |  | 0.096 ± 0.03 | 0.134 ± 0.029 | 0.146 ± 0.029 |  |
| CCN(CC)CC [triethylamine] + CCCCCC[n+]1ccn(C)c1.FC(F)(F)C(F)(F)[P-](F)(F)(F)(C(F)(F)C(F)(F)F)C(F)(F)C(F)(F)F |  |  |  | 2.09 ± 0.14 | 1.96 ± 0.13 | 1.76 ± 0.12 |  |
| CCCCCCCCCCCCC [tridecane] + CCCCn1cc[n+](C)c1.O=S(=O)([N-]S(=O)(=O)C(F)(F)C(F)(F)F)C(F)(F)C(F)(F)F | 111 ± 7.6 | 78.1 ± 5.3 |  |  |  |  | activity coefficient (363.65 K): 68.9 ± 4.7 |
| CCCO [propan-1-ol] + CCCCCC[n+]1ccn(C)c1.FC(F)(F)C(F)(F)[P-](F)(F)(F)(C(F)(F)C(F)(F)F)C(F)(F)C(F)(F)F |  |  |  | 2.47 ± 0.17 | 1.96 ± 0.13 | 1.47 ± 0.096 |  |
| CC#N [acetonitrile] + CCCCn1cc[n+](C)c1.O=S(=O)([N-]S(=O)(=O)C(F)(F)C(F)(F)F)C(F)(F)C(F)(F)F | 0.528 ± 0.039 | 0.514 ± 0.038 | 0.504 ± 0.038 |  |  |  |  |
| CCOCC [diethyl ether] + CCCCn1cc[n+](C)c1.O=S(=O)([N-]S(=O)(=O)C(F)(F)C(F)(F)F)C(F)(F)C(F)(F)F | 1.72 ± 0.12 | 1.7 ± 0.11 | 1.65 ± 0.11 |  |  |  |  |
| CCC=O [propanal] + CCn1cc[n+](C)c1.CS(=O)(=O)[O-] |  |  |  |  |  |  | activity coefficient (312.55 K): 2.76 ± 0.19; activity coefficient (322.45 K): 2.71 ± 0.18; activity coefficient (332.45 K): 2.65 ± 0.18 |
| CCC(C)CC [3-methylpentane] + CCCCn1cc[n+](C)c1.O=S(=O)([N-]S(=O)(=O)C(F)(F)C(F)(F)F)C(F)(F)C(F)(F)F | 8.23 ± 0.56 | 7.79 ± 0.53 | 7.62 ± 0.52 |  |  |  |  |
| CC#N [acetonitrile] + CCCCCCCCCCn1cc[n+](CCCCCCCCCC)c1C.O=S(=O)([N-]S(=O)(=O)C(F)(F)F)C(F)(F)F |  |  |  |  |  |  | activity coefficient (323.1 K): 0.47 ± 0.037; activity coefficient (333.15 K): 0.453 ± 0.036; activity coefficient (343.15 K): 0.44 ± 0.035 |
| CO [methanol] + CCn1cc[n+](C)c1.CS(=O)(=O)[O-] |  |  |  |  |  |  | activity coefficient (312.55 K): 0.249 ± 0.03; activity coefficient (322.45 K): 0.254 ± 0.03; activity coefficient (332.45 K): 0.264 ± 0.03 |

| Structure (SMILES) | activity coefficient (322.55 K) | activity coefficient (342.75 K) | activity coefficient (362.65 K) | activity coefficient (312.8 K) | activity coefficient (332.85 K) | activity coefficient (354.65 K) | also measured |
| --- | --- | --- | --- | --- | --- | --- | --- |
| CCOCC [diethyl ether] + CCCCCC[n+]1ccn(C)c1.FC(F)(F)C(F)(F)[P-](F)(F)(F)(C(F)(F)C(F)(F)F)C(F)(F)C(F)(F)F |  |  |  | 0.837 ± 0.054 | 0.866 ± 0.055 | 0.897 ± 0.057 |  |
| CC(C)OC(C)C [diisopropyl ether] + CCCCn1cc[n+](C)c1.O=S(=O)([N-]S(=O)(=O)C(F)(F)C(F)(F)F)C(F)(F)C(F)(F)F | 3.46 ± 0.24 | 3.46 ± 0.23 | 3.43 ± 0.23 |  |  |  |  |
| c1ccsc1 [thiophene] + CCCCCC[n+]1ccn(C)c1.FC(F)(F)C(F)(F)[P-](F)(F)(F)(C(F)(F)C(F)(F)F)C(F)(F)C(F)(F)F |  |  |  | 0.577 ± 0.041 | 0.602 ± 0.042 | 0.604 ± 0.042 |  |
| c1ccccc1 [benzene] + CCCCCC[n+]1ccn(C)c1.FC(F)(F)C(F)(F)[P-](F)(F)(F)(C(F)(F)C(F)(F)F)C(F)(F)C(F)(F)F |  |  |  | 0.517 ± 0.039 | 0.552 ± 0.04 | 0.564 ± 0.041 |  |
| C1CCCCCC1 [cycloheptane] + CCCCCC[n+]1ccn(C)c1.FC(F)(F)C(F)(F)[P-](F)(F)(F)(C(F)(F)C(F)(F)F)C(F)(F)C(F)(F)F |  |  |  | 9.01 ± 0.61 | 13.2 ± 0.9 | 28.7 ± 2 |  |
| Cc1cccc(C)c1 [1,3-dimethylbenzene] + CCCCCCCCCCn1cc[n+](CCCCCCCCCC)c1C.O=S(=O)([N-]S(=O)(=O)C(F)(F)F)C(F)(F)F |  |  |  |  |  |  | activity coefficient (323.1 K): 0.645 ± 0.044; activity coefficient (333.15 K): 0.653 ± 0.045; activity coefficient (343.15 K): 0.663 ± 0.045 |
| C1COCCO1 [1,4-dioxane] + CCn1cc[n+](C)c1.CS(=O)(=O)[O-] |  |  |  |  |  |  | activity coefficient (312.55 K): 2.67 ± 0.18; activity coefficient (322.45 K): 2.67 ± 0.18; activity coefficient (332.45 K): 2.66 ± 0.18 |
| CCCCCCC [heptane] + CCCCn1cc[n+](C)c1.O=S(=O)([N-]S(=O)(=O)C(F)(F)C(F)(F)F)C(F)(F)C(F)(F)F | 13.6 ± 0.93 | 12.4 ± 0.84 | 11.6 ± 0.79 |  |  |  |  |
| CC1CCCCC1 [methylcyclohexane] + CCCCCC[n+]1ccn(C)c1.FC(F)(F)C(F)(F)[P-](F)(F)(F)(C(F)(F)C(F)(F)F)C(F)(F)C(F)(F)F |  |  |  | 5.89 ± 0.4 | 5.23 ± 0.36 | 4.49 ± 0.31 |  |
| CC#N [acetonitrile] + CCCCCC[n+]1ccn(C)c1.FC(F)(F)C(F)(F)[P-](F)(F)(F)(C(F)(F)C(F)(F)F)C(F)(F)C(F)(F)F |  |  |  | 0.295 ± 0.031 | 0.295 ± 0.031 | 0.292 ± 0.031 |  |
| CC(C)OC(C)C [diisopropyl ether] + CCCCCC[n+]1ccn(C)c1.FC(F)(F)C(F)(F)[P-](F)(F)(F)(C(F)(F)C(F)(F)F)C(F)(F)C(F)(F)F |  |  |  | 1.59 ± 0.1 | 1.7 ± 0.11 | 1.72 ± 0.12 |  |
| CCC(=O)CC [pentan-3-one] + CCn1cc[n+](C)c1.CS(=O)(=O)[O-] |  |  |  |  |  |  | activity coefficient (312.55 K): 7.58 ± 0.52; activity coefficient (322.45 K): 7.45 ± 0.51; activity coefficient (332.45 K): 7.37 ± 0.5 |
| CC(C)CC(C)(C)C [2,2,4-trimethylpentane] + CCCCCC[n+]1ccn(C)c1.FC(F)(F)C(F)(F)[P-](F)(F)(F)(C(F)(F)C(F)(F)F)C(F)(F)C(F)(F)F |  |  |  | 7.98 ± 0.54 | 7.13 ± 0.49 | 6.18 ± 0.42 |  |
| Cc1cccc(C)c1 [1,3-dimethylbenzene] + CCCCn1cc[n+](C)c1.O=S(=O)([N-]S(=O)(=O)C(F)(F)C(F)(F)F)C(F)(F)C(F)(F)F | 2.02 ± 0.14 | 2.03 ± 0.14 | 2.09 ± 0.14 |  |  |  |  |
| CC(C)OC(C)C [diisopropyl ether] + CCCCCCCCCCn1cc[n+](CCCCCCCCCC)c1C.O=S(=O)([N-]S(=O)(=O)C(F)(F)F)C(F)(F)F |  |  |  |  |  |  | activity coefficient (323.1 K): 1.12 ± 0.071; activity coefficient (333.15 K): 1.23 ± 0.079; activity coefficient (343.15 K): 1.23 ± 0.079 |
| Cc1ccc(C)cc1 [1,4-dimethylbenzene] + CCCCCCCCCCn1cc[n+](CCCCCCCCCC)c1C.O=S(=O)([N-]S(=O)(=O)C(F)(F)F)C(F)(F)F |  |  |  |  |  |  | activity coefficient (323.1 K): 0.647 ± 0.044; activity coefficient (333.15 K): 0.66 ± 0.045; activity coefficient (343.15 K): 0.657 ± 0.045 |
| CC(C)CC(C)(C)C [2,2,4-trimethylpentane] + CCCCn1cc[n+](C)c1.O=S(=O)([N-]S(=O)(=O)C(F)(F)C(F)(F)F)C(F)(F)C(F)(F)F | 13.3 ± 0.91 | 11.7 ± 0.8 | 10.5 ± 0.72 |  |  |  |  |
| CCCCCCCCCCCC [dodecane] + CCCCn1cc[n+](C)c1.O=S(=O)([N-]S(=O)(=O)C(F)(F)C(F)(F)F)C(F)(F)C(F)(F)F | 77.8 ± 5.3 | 62 ± 4.2 | 50.9 ± 3.5 |  |  |  |  |
| CCC(C)CC [3-methylpentane] + CCCCCC[n+]1ccn(C)c1.FC(F)(F)C(F)(F)[P-](F)(F)(F)(C(F)(F)C(F)(F)F)C(F)(F)C(F)(F)F |  |  |  | 5.63 ± 0.38 | 5.05 ± 0.34 | 4.43 ± 0.3 |  |
| ClCCl [dichloromethane] + CCn1cc[n+](C)c1.CS(=O)(=O)[O-] |  |  |  |  |  |  | activity coefficient (312.55 K): 0.471 ± 0.037; activity coefficient (322.45 K): 0.531 ± 0.039; activity coefficient (332.45 K): 1.3 ± 0.084 |
